Results reported in US20110034510A1, “ENANTIOMER-ENRICHED ALPHA-,OMEGA-AMINO ALCOHOL DERIVATIVES, THEIR PRODUCTION AND USE AS INSECT- AND MITE-REPELLING AGENTS” (SALTIGO GMBH, priority 2006, published 2011).

Key:
Aedes aegypti = assay: Repellent test on a guinea pig (Aedes aegypti); format: in vivo; conditions: shaved guinea pig back (50 cm^2) treated with 0.4 ml of solution, 3 parts by weight active ingredient in 100 parts by volume ethanol; bites observed 10 minutes, repeated hourly, maximum 9 hours
Protocol: A) Repellent Test on a Guinea Pig
Test Animal: Aedes aegypti (Imagines)
3 parts by weight of active ingredient are taken up in 100 parts by volume of solvent
A guinea pig whose back has been shaved in an area of 50 cm^2 is accommodated in a box such that only the shaved area is accessible to the mosquitoes.
It is observed for 10 minutes how many mosquitoes bite the guinea pig. Subsequently, it is removed and the test is repeated after 1 hour. The experiment is performed for a maximum of 9 hours or until the effect ceases.

mosquitoes = assay: Repellent test against mosquitoes on the human lower arm; format: in vivo; conditions: compared to the standard racemic mixture; 150 μl test product on 90 cm^2 of human lower arm; 3-minute exposure every hour for up to 8 hours
From the text: B) Repellent Effectiveness of Formulations for Use Against Mosquitoes on the Human Arm: […]
The insects, as an actively biting population (approx. 1000 mosquitoes of both genders), are kept in cages (length 90 cm, width 30 cm, height 40 cm, side walls made of gauze) which have two light fabric gates on the front side. The insects have been fed exclusively with sugared water (10% Dextropur). The age of the insects is at least 7 days; the number of insects is made up twice per week by 3-day old fully grown insects.
The low electrical illumination of the cage is active from 6 am to 6 pm, with light from 6 pm to 6 am. The temperature is 25-27° C.; the relative air humidity is 50-70%.
The lower arms of the test subjects are washed with unperfumed soap, rinsed with water, then rinsed with a solution of 70% ethanol and 30% water, and dried with a towel.
90 cm^2 of each lower arm of a test subject is rubbed uniformly with 150 μl (or 150 mg) of the test product. As soon as the formulation is dry (after approx. 5 minutes), a sleeve with an opening of 3.1-8 cm (25 cm^2) is bound around the arm such that the opening is completely over the treated surface. The corners of the opening of the sleeve have likewise been rubbed with the test material (2000) in a width of 1 cm in order to prevent bites at the corners. The area above the sleeve has been protected with a towel through which the mosquitoes cannot penetrate. Hands are protected with latex gloves.
Both arms are introduced into the cage through the fabric gate, and the number of bites (and landings, if necessary) per arm is noted within a 3-minute test period. The test is repeated every hour for up to 8 hours, or ended beforehand if the effect ceases (3 or more bites within 3 minutes or during 2 successive test sequences). Each test consists of three to 5 test subjects.

| SMILES | Protection time (Aedes aegypti) | Increase in the protection time* in % (mosquitoes) |
| --- | --- | --- |
| CC[C@H](C)OC(=O)N1CCCC[C@H]1CCO [1-[(S)-sec-butyloxycarbonyl]-2-(S)-(2-hydroxyethyl)piperidine] | 3.9 h | 0% |
| CCC(C)OC(=O)N1CCCCC1CCO (stereo in doubt) [1-[(R)-sec-butyloxycarbonyl]-2-(S)-(+)-(2-hydroxyethyl)piperidine] | 3.4 h | 12% |
| CC[C@H](C)OC(=O)N1CCCC[C@@H]1CCO (stereo in doubt) [1-[(S)-sec-butyloxycarbonyl]-2-(R)-(+)-(2-hydroxyethyl)piperidine] | 4.9 h | 0% |
| CC[C@@H](C)OC(=O)N1CCCC[C@@H]1CCO (single isomer, unassigned) | 4.4 h | 3% |
